According to BindingDB's records for doi:10.1016/j.bmcl.2011.11.065 (Nerviano Medical Sciences, 2011):

Biological target: 3-phosphoinositide-dependent protein kinase 1 (PDPK1) (Homo sapiens) (UniProt O15530)
Experiment: Inhibition of PDK1

| IC50 [µM] | Structure (SMILES) |
| --- | --- |
| > 10 | CN1CCN(c2ccc(OC(F)(F)F)c(Nc3nccc(-c4cc5c(n4C)CCNC5=O)n3)c2)CC1 |
| > 10 | CN1CCN(c2ccc(OC(F)(F)F)c(Nc3nccc(-c4cc(C(N)=O)cn4C)n3)c2)CC1 |
